Experimental data: US12404279B2, “Deubiquitinase inhibitors and methods of use thereof” (Molecure S.A., priority 2021, dated 2025)
pIC50: −log10 of the molar value. Structures can show the parent of a compound that is named as a salt.

The molecules below were run against full-length USP7 (Homo sapiens (Human), UniProt Q93009) (assay: Enzymatic assay to determine IC50 of USP7 inhibitors (Ubiquitin-Rhodamine 110 cleavage)). Conditions: 0.5 nM USP7, 0.5 μM Ubiquitin-Rhodamine 110, 45 min at 37° C.
full-length USP7, sequence (Q93009 whole entry): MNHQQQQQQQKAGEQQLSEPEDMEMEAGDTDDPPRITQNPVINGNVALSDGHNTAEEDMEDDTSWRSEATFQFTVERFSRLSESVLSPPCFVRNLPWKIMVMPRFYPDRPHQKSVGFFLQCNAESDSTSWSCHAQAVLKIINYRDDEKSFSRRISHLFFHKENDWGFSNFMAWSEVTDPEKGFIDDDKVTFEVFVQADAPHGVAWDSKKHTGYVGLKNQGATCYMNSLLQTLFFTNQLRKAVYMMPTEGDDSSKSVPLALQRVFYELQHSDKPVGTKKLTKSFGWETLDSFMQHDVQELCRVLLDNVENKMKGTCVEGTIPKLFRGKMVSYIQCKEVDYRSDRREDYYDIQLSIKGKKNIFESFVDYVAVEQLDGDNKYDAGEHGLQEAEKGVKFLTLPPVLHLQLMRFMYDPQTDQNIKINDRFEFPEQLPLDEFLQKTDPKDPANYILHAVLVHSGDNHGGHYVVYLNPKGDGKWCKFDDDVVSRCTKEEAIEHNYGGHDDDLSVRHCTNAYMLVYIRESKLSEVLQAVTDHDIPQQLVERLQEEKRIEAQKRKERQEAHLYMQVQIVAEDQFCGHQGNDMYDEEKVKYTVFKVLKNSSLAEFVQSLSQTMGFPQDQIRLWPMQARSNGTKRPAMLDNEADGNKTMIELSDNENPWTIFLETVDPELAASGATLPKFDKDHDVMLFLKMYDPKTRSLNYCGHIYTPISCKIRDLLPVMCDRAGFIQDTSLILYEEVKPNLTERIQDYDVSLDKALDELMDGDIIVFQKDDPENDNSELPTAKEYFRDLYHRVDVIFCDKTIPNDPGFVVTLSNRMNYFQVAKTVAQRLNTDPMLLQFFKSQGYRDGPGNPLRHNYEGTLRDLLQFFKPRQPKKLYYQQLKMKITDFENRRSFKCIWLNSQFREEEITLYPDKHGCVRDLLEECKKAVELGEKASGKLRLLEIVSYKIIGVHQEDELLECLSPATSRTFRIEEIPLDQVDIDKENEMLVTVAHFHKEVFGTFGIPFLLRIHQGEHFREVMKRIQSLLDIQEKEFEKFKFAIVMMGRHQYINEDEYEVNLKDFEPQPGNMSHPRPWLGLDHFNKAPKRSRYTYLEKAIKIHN
Format: biochemical
Procedure, shortened: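 Enzyme: 0.5 nM full-length USP7 in HEPES pH 7.5 buffer with NaCl, DTT, BSA and Tween20, given 15 min at room temperature with DTT before compounds were added.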

| SMILES | pIC50 |
| --- | --- |
| Cc1cc(C(F)(F)F)nc(-c2ccnc3cc(CN4C(=O)C5C(C4=O)C5(C)C)sc23)c1C(=O)N1CCC(F)(F)C1 (centres unmarked) [Example 83, 3-((7-(3-(3,3-difluoropyrrolidine-1-carbonyl)-4-methyl-6-(trifluoromethyl)pyridin-2-yl)thieno[3,2-b]pyridin-2-yl)methyl)-6,6-dimethyl-3-azabicyclo[3.1.0]hexane-2,4-dione hydrochloride] | > 6.30 |
| Cc1nc(C#N)cc(-c2ccnc3cc(CN4C(=O)C5C(C4=O)C5(C)C)sc23)c1C(=O)N1CC[C@@H](N)C1 (stereo partly drawn) [Example 8, 5-((R)-3-aminopyrrolidine-1-carbonyl)-4-(2-((6,6-dimethyl-2,4-dioxo-3-azabicyclo[3.1.0]hexan-3-yl)methyl)thieno[3,2-b]pyridin-7-yl)-6-methylpicolinonitrile 2,2,2-trifluoroacetate] | 6.00 to 6.30 |
| Cc1nc(C(F)(F)F)cc(-c2ccnc3cc(CN4C(=O)C5C(C4=O)C5(C)C)sc23)c1NC(=O)C1CCN(C(=O)C(F)(F)F)C1 (racemic) [Example 65, N-(4-(2-((6,6-dimethyl-2,4-dioxo-3-azabicyclo[3.1.0]hexan-3-yl)methyl)thieno[3,2-b]pyridin-7-yl)-2-methyl-6-(trifluoromethyl)pyridin-3-yl)-1-(2,2,2-trifluoroacetyl)pyrrolidine-3-carboxamide 2,2,2-trifluoroacetate] | < 5.00 |
| Cc1cc(C(F)(F)F)nc(-c2ccnc3cc(CN4C(=O)C5C(C4=O)C5(C)C)sc23)c1C(=O)NC1CNC1 (centres unmarked) [Example 70, N-(azetidin-3-yl)-2-(2-((6,6-dimethyl-2,4-dioxo-3-azabicyclo[3.1.0]hexan-3-yl)methyl)thieno[3,2-b]pyridin-7-yl)-4-methyl-6-(trifluoromethyl)nicotinamide dihydrochloride] | 6.00 to 6.30 |
| Cc1nc(C#N)cc(-c2ccnc3cc(CN4C(=O)C5C(C4=O)C5(C)C)sc23)c1C(=O)N1CCNCC1 (centres unmarked) [Example 17, 4-(2-((6,6-dimethyl-2,4-dioxo-3-azabicyclo[3.1.0]hexan-3-yl)methyl)thieno[3,2-b]pyridin-7-yl)-6-methyl-5-(piperazine-1-carbonyl)picolinonitrile hydrochloride] | 6.00 to 6.30 |
| Cc1cc(C(F)(F)F)nc(-c2ccnc3cc(CN4C(=O)C5C(C4=O)C5(C)C)sc23)c1C[C@@H]1CNCCO1 (stereo partly drawn) [Example 96, 6,6-dimethyl-3-((7-(4-methyl-3-(((R)-morpholin-2-yl)methyl)-6-(trifluoromethyl)pyridin-2-yl)thieno[3,2-b]pyridin-2-yl)methyl)-3-azabicyclo[3.1.0]hexane-2,4-dione dihydrochloride] | > 6.30 |
| Cc1cc(C(F)(F)F)nc(-c2ccnc3cc(CN4C(=O)C5C(C4=O)C5(C)C)sc23)c1C(=O)N1CCNC[C@@H]1C (stereo partly drawn) [Example 78, 6,6-dimethyl-3-((7-(4-methyl-3-((S)-2-methylpiperazine-1-carbonyl)-6-(trifluoromethyl)pyridin-2-yl)thieno[3,2-b]pyridin-2-yl)methyl)-3-azabicyclo[3.1.0]hexane-2,4-dione dihydrochloride] | > 6.30 |

Next, values leading:

| pIC50 | SMILES |
| --- | --- |
| > 6.30 | Cc1cc(C(F)(F)F)nc(-c2ccnc3cc(CN4C(=O)C5C(C4=O)C5(C)C)sc23)c1NC1CC2(CNC2)C1 (centres unmarked) [Example 132, 3-((7-(3-((2-azaspiro[3.3]heptan-6-yl)amino)-4-methyl-6-(trifluoromethyl)pyridin-2-yl)thieno[3,2-b]pyridin-2-yl)methyl)-6,6-dimethyl-3-azabicyclo[3.1.0]hexane-2,4-dione 2,2,2-trifluoroacetate] |
| > 6.30 | Cc1cc(C(F)(F)F)nc(-c2ccnc3cc(CN4C(=O)C5C(C4=O)C5(C)C)sc23)c1C(=O)N1CC2CCC1CN2 (centres unmarked) [Example 156, 3-((7-(3-(2,5-diazabicyclo[2.2.2]octane-2-carbonyl)-4-methyl-6-(trifluoromethyl)pyridin-2-yl)thieno[3,2-b]pyridin-2-yl)methyl)-6,6-dimethyl-3-azabicyclo[3.1.0]hexane-2,4-dione hydrochloride] |
| > 6.30 | Cc1cc(C(F)(F)F)nc(-c2ccnc3cc(CN4C(=O)C5C(C4=O)C5(C)C)sc23)c1C(=O)N1CC[C@H](O)C1 (stereo partly drawn) [Example 113, 3-((7-(3-((S)-3-hydroxypyrrolidine-1-carbonyl)-4-methyl-6-(trifluoromethyl)pyridin-2-yl)thieno[3,2-b]pyridin-2-yl)methyl)-6,6-dimethyl-3-azabicyclo[3.1.0]hexane-2,4-dione hydrochloride] |
| 6.00 to 6.30 | Cc1cc(Cl)nc(-c2ccnc3cc(CN4C(=O)C5C(C4=O)C5(C)C)sc23)c1NC1CC(F)(F)C1 (centres unmarked) [Example 123, 3-((7-(6-chloro-3-((3,3-difluorocyclobutyl)amino)-4-methylpyridin-2-yl)thieno[3,2-b]pyridin-2-yl)methyl)-6,6-dimethyl-3-azabicyclo[3.1.0]hexane-2,4-dione 2,2,2-trifluoroacetate] |
| > 6.30 | Cc1cc(C(F)(F)F)nc(-c2ccnc3cc(CN4C(=O)C5C(C4=O)C5(C)C)sc23)c1C(=O)N1C[C@H](N)[C@@H](F)C1 (stereo partly drawn) [Example 170, 3-((7-(3-((3S,4S)-3-amino-4-fluoropyrrolidine-1-carbonyl)-4-methyl-6-(trifluoromethyl)pyridin-2-yl)thieno[3,2-b]pyridin-2-yl)methyl)-6,6-dimethyl-3-azabicyclo[3.1.0]hexane-2,4-dione hydrochloride] |
| 5.00 to 6.00 | Cc1nc(C(F)(F)F)cc(-c2ccnc3cc(CN4C(=O)C5C(C4=O)C5(C)C)sc23)c1CN1CCNCC1 (centres unmarked) [Example 102, 6,6-dimethyl-3-((7-(2-methyl-3-(piperazin-1-ylmethyl)-6-(trifluoromethyl)pyridin-4-yl)thieno[3,2-b]pyridin-2-yl)methyl)-3-azabicyclo[3.1.0]hexane-2,4-dione 2,2,2-trifluoroacetate] |

Same assay, conditions: at 1 μM of the test compound; given where IC50 not determined yet; read-out: percent value of inhibition of USP7 activity

| inhibition at 1 µM | SMILES |
| --- | --- |
| < 20% | CC1(C)C2C(=O)N(Cc3cc4nccc(-c5cc(F)cnc5O[C@H]5CCNC5)c4s3)C(=O)C21 (stereo partly drawn) [Example 157, 3-((7-(5-fluoro-2-(((S)-pyrrolidin-3-yl)oxy)pyridin-3-yl)thieno[3,2-b]pyridin-2-yl)methyl)-6,6-dimethyl-3-azabicyclo[3.1.0]hexane-2,4-dione dihydrochloride] |
| < 20% | Cc1cc(C(F)(F)F)nc(-c2ccnc3cc(CN4C(=O)C5C(C4=O)C5(C)C)sc23)c1C(=O)NC1CCNCC1 (centres unmarked) [Example 111, 2-(2-((6,6-dimethyl-2,4-dioxo-3-azabicyclo[3.1.0]hexan-3-yl)methyl)thieno[3,2-b]pyridin-7-yl)-4-methyl-N-(piperidin-4-yl)-6-(trifluoromethyl)nicotinamide dihydrochloride] |
| < 20% | CC1(C)C2C(=O)N(Cc3cc4nccc(-c5cc(Cl)cnc5O[C@H]5CCNC5)c4s3)C(=O)C21 (stereo partly drawn) [Example 164, 3-((7-(5-chloro-2-(((S)-pyrrolidin-3-yl)oxy)pyridin-3-yl)thieno[3,2-b]pyridin-2-yl)methyl)-6,6-dimethyl-3-azabicyclo[3.1.0]hexane-2,4-dione dihydrochloride] |
| < 20% | Cc1cc(-c2ccnc3cc(CN4C(=O)C5C(C4=O)C5(C)C)sc23)c(O[C@H]2CCCNC2)cn1 (stereo partly drawn) [Example 119, 6,6-dimethyl-3-((7-(2-methyl-5-(((S)-piperidin-3-yl)oxy)pyridin-4-yl)thieno[3,2-b]pyridin-2-yl)methyl)-3-azabicyclo[3.1.0]hexane-2,4-dione 2,2,2-trifluoroacetate] |
